Consider 11 compounds from ChEMBL document CHEMBL1201862, “PubChem BioAssay data set” (2004).

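Five concentrations, 48 hours, 96-well plates. The concentration for 50% growth inhibition is given as GI50.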 Activity calls are given as the source filed them. No stated cut-off is given here; in the data, active = GI50 up to about 1.1 µM and inactive = higher.

Among the test systems are BT-549; DU-145; HCT-116; KM12; LOX IMVI; MCF7; NCI-H23; NCI-H460; OVCAR-5; SF-268; SF-295; SK-OV-3; SN12C; SNB-19; SR; T47D; UACC-257; UO-31; CCRF-CEM; K562.
Common to all, as to experiment: NCI-60 cell line screen, 48 h

In the case of `O=C1OC(C2(O)OC(=O)c3ccccc32)c2ccccc21` (stereo not drawn), the GI50 in the test with BT-549, in the test with DU-145, in the test with HCT-116, with KM12, in the test with LOX IMVI and in the test on MCF7 was > 100 µM (inactive) each time. In addition, the GI50 in the test with NCI-H23, in the test on NCI-H460, with OVCAR-5, in the test on SF-268, in the test on SF-295 and with SK-OV-3 was > 100 µM (inactive) in each case. Further, the GI50 in the test with SN12C, with SNB-19, in the test with SR, with T47D, in the test on UACC-257 and in the test on UO-31 was > 100 µM (inactive) each time.

In the case of `O=C1N/C(=N/N=C/C(O)C(O)C(O)CO)N/C1=C\c1c[nH]c2ccccc12` (stereo not drawn), the GI50 in the test on BT-549 is > 100 µM (inactive); with CCRF-CEM, 41.7 µM (inactive); in the test with DU-145, > 100 µM (inactive); with HCT-116, > 100 µM (inactive); with K562 it was > 100 µM (inactive); with KM12, > 100 µM (inactive). The GI50 with LOX IMVI, in the test on MCF7, in the test on NCI-H23, with NCI-H460, in the test on OVCAR-5 and in the test on SF-268 was > 100 µM (inactive) in each case. Besides, the GI50 in the test with SF-295 is > 100 µM (inactive); in the test with SK-OV-3, > 100 µM (inactive); in the test on SN12C, > 100 µM (inactive); with SNB-19, 1.93 µM (inactive); in the test with T47D, > 100 µM (inactive); in the test on UACC-257, > 100 µM (inactive).

For `COc1cccc(Nc2nc(-c3cccs3)nc3cc(OC)c(OC)cc23)c1`, the GI50 was 25.9 µM (inactive) in the test on BT-549; 55.6 µM (inactive) in the test on DU-145; 26.4 µM (inactive) in the test on HCT-116; 37.1 µM (inactive) in the test on K562; 30.4 µM (inactive) in the test on KM12; 24.5 µM (inactive) in the test with MCF7. In addition, the GI50 with NCI-H23 is 32.4 µM (inactive); in the test on NCI-H460 it was 28.8 µM (inactive); in the test on OVCAR-5, 31.9 µM (inactive); with SF-268, 40.9 µM (inactive); in the test on SF-295 it was 23.4 µM (inactive); with SK-OV-3, 53 µM (inactive). Further, the GI50 in the test with SN12C was 21.3 µM (inactive); with SNB-19, 28.4 µM (inactive); with SR, 11 µM (inactive); in the test with T47D it was 42.8 µM (inactive); with UACC-257 it was 36.8 µM (inactive); in the test with UO-31, 51.8 µM (inactive).

For `Oc1ccc2cc(Br)ccc2c1-c1c(O)ccc2ccc(Br)cc12`, the GI50 was 14.7 µM (inactive) in the test with BT-549; 13 µM (inactive) with CCRF-CEM; 15.8 µM (inactive) in the test on DU-145; 14.4 µM (inactive) with HCT-116; 18.5 µM (inactive) in the test on K562; 6.84 µM (inactive) in the test with KM12. Further, the GI50 in the test on MCF7 is 13 µM (inactive); with NCI-H23, 14.4 µM (inactive); in the test on NCI-H460, 4.12 µM (inactive); with OVCAR-5, 16.9 µM (inactive); in the test with SF-268, 20 µM (inactive); in the test on SF-295 it was 15.4 µM (inactive). The GI50 with SK-OV-3 was 12.2 µM (inactive); in the test with SN12C, 12 µM (inactive); in the test with SNB-19, 15.4 µM (inactive); in the test with SR, 14.3 µM (inactive); in the test on T47D, 12.7 µM (inactive); in the test with UACC-257 it was 18.5 µM (inactive). For the same compound, the GI50 in the test on UO-31 was 15.3 µM (inactive).

As for `N#Cc1c(N)c2c(c(-c3ccccc3)c1-c1ccccc1)C(=O)N(Nc1ccccc1)C2=O`, the GI50 with BT-549 was 56.1 µM (inactive); in the test with CCRF-CEM, 31.6 µM (inactive); in the test on DU-145 it was 31.3 µM (inactive); with HCT-116, 12.9 µM (inactive); in the test with K562 it was 33.6 µM (inactive); in the test on KM12, 24.2 µM (inactive). The GI50 was 16.9 µM (inactive) in the test on LOX IMVI; 47.8 µM (inactive) in the test on MCF7; 34 µM (inactive) with NCI-H460; 27 µM (inactive) in the test on OVCAR-5; 59.2 µM (inactive) in the test on SF-268; 41.5 µM (inactive) with SF-295. Further, the GI50 with SN12C is 30.7 µM (inactive); in the test with SNB-19 it was 45.8 µM (inactive); in the test on SR, 36.2 µM (inactive); in the test on T47D, 19.4 µM (inactive); in the test on UACC-257, 48.6 µM (inactive); with UO-31 it was 24.7 µM (inactive).

`CCc1ccccc1NC(=O)C(=O)CC(=O)c1sc(Nc2ccccc2Cl)nc1C`: the GI50 is 34.8 µM (inactive) with BT-549; 18 µM (inactive) in the test with CCRF-CEM; 55.1 µM (inactive) in the test with DU-145; 17.9 µM (inactive) in the test on HCT-116; 29.4 µM (inactive) in the test with K562; 29.6 µM (inactive) with KM12. The GI50 in the test on LOX IMVI is 19.7 µM (inactive); in the test on MCF7, 18.2 µM (inactive); with NCI-H23 it was 30.3 µM (inactive); with NCI-H460, 21.2 µM (inactive); in the test with OVCAR-5, > 100 µM (inactive); with SF-268 it was 66.4 µM (inactive). The GI50 with SF-295 was 28.2 µM (inactive); in the test on SK-OV-3, 24.2 µM (inactive); in the test on SN12C, 42.7 µM (inactive); in the test on SNB-19, 39.1 µM (inactive); with T47D it was 35.7 µM (inactive); in the test with UACC-257 it was 43.8 µM (inactive). Also, the GI50 in the test on UO-31 is 32.7 µM (inactive).

As to `O=C(NCCCN(CCCCN(CCCNC(=O)C(F)(F)F)Cc1ccccc1)Cc1ccccc1)C(F)(F)F`, the GI50 is 14.9 µM (inactive) in the test with BT-549; 16.2 µM (inactive) with CCRF-CEM; 19.7 µM (inactive) with DU-145; 11.5 µM (inactive) in the test on HCT-116; 13.7 µM (inactive) with K562; 13.2 µM (inactive) in the test with KM12. In addition, the GI50 in the test with LOX IMVI is 8.43 µM (inactive); in the test on MCF7, 12.3 µM (inactive); in the test on NCI-H23 it was 15.5 µM (inactive); with NCI-H460, 10.4 µM (inactive); in the test on OVCAR-5 it was 19.9 µM (inactive); in the test with SF-268 it was 12.5 µM (inactive). The GI50 with SF-295 was 16.5 µM (inactive); in the test on SK-OV-3 it was 20.1 µM (inactive); with SN12C, 15.4 µM (inactive); in the test on SNB-19, 13.7 µM (inactive); in the test on T47D it was 17.7 µM (inactive); in the test on UACC-257 it was 5.07 µM (inactive). Besides, the GI50 in the test on UO-31 was 4.63 µM (inactive).

As to `Cn1c2ccccc2c(=O)c2cccc(C(=O)NC(CCC(N)=O)C(=O)O)c21` (stereo not drawn), the GI50 in the test with BT-549, in the test with DU-145, in the test on HCT-116, with K562, in the test on KM12 and in the test on LOX IMVI was > 100 µM (inactive) in each case. Also, the GI50 in the test with MCF7, with NCI-H23, in the test with NCI-H460, in the test on OVCAR-5, in the test with SF-268 and with SF-295 was > 100 µM (inactive) in each case. The GI50 in the test on SK-OV-3 is > 100 µM (inactive); in the test with SN12C it was > 100 µM (inactive); with SNB-19, > 100 µM (inactive); in the test on SR, 62.1 µM (inactive); in the test on T47D, > 100 µM (inactive); in the test on UACC-257 it was > 100 µM (inactive). The GI50 with UO-31 is > 10 µM (inactive).

In the case of `CCCCCCCCCCC(O)C1CCC(C2CCC(C(O)CCCCC(O)CCCCCC(O)CC3=CC(C)OC3=O)O2)O1` (stereo not drawn), the GI50 in the test on BT-549 was > 25 µM (inactive); in the test on DU-145 it was 9.91 µM (inactive); in the test with HCT-116, 0.748 µM (active); in the test with K562 it was > 6.9 µM (inactive); in the test with KM12, 3.78 µM (inactive); with LOX IMVI, 2.69 µM (inactive). For the same compound, the GI50 in the test with MCF7 is 1.18 µM (inactive); in the test with NCI-H460, 6.93 µM (inactive); in the test with OVCAR-5 it was > 25 µM (inactive); in the test with SF-268, 4 µM (inactive); in the test on SF-295 it was 19.9 µM (inactive); in the test on SK-OV-3, > 25 µM (inactive). In addition, the GI50 in the test with SN12C is 9.48 µM (inactive); in the test on SNB-19 it was > 25 µM (inactive); in the test on SR it was 0.0218 µM (active); with T47D, > 11.8 µM (inactive); in the test with UACC-257, 2.12 µM (inactive); with UO-31, > 25 µM (inactive).

For the compound `COc1ccc2[nH]c3cc4c(=O)c5cc(OC)ccc5[nH]c4cc3c(=O)c2c1`, the GI50 in the test on BT-549, in the test with DU-145, in the test on HCT-116, with K562, in the test with KM12 and with MCF7 was > 100 µM (inactive) throughout. For the same compound, the GI50 in the test on NCI-H23, in the test on NCI-H460, in the test with OVCAR-5, in the test with SF-268, in the test on SF-295 and with SK-OV-3 was > 100 µM (inactive) in each case. The GI50 in the test with SN12C is > 100 µM (inactive); with SNB-19, > 100 µM (inactive); with SR, > 100 µM (inactive); with T47D it was > 100 µM (inactive); in the test with UACC-257 it was > 100 µM (inactive); with UO-31 it was 97.5 µM (inactive).

On to `CCOC(=O)C1=C(C)N(Cc2ccccc2)C2(O)C(OC)CC(=O)C3C(=O)N(c4ccccc4)C(=O)C132` (stereo not drawn), for which the GI50 is 4.97 µM (inactive) in the test on BT-549; 3.91 µM (inactive) with CCRF-CEM; 3.9 µM (inactive) in the test with DU-145; 6.3 µM (inactive) in the test with HCT-116; 4.43 µM (inactive) in the test on K562; 8.75 µM (inactive) with KM12. Further, the GI50 with LOX IMVI is 3.39 µM (inactive); with MCF7 it was 3.61 µM (inactive); in the test on NCI-H23 it was 15.8 µM (inactive); in the test on NCI-H460 it was 6.98 µM (inactive); in the test with OVCAR-5, 13.8 µM (inactive); with SF-268, 9.33 µM (inactive). For the same compound, the GI50 with SF-295 is 15.2 µM (inactive); with SN12C it was 10.6 µM (inactive); in the test with SNB-19, 16.3 µM (inactive); with SR, 3.55 µM (inactive); with T47D it was 4.28 µM (inactive); with UACC-257, 15.5 µM (inactive). In the test with UO-31, the GI50 is 13.3 µM (inactive).
